Measured values as given in patent publication US10285982B2, “3-(1H-pyrrolo[2,3-B]pyridin-2-yl)-1H-pyrazolo[3,4-C]pyridines and therapeutic uses thereof” (Samumed, LLC, priority 2015, dated 2019).

Experiments:
Assay type in all cases: cell-based
[1] = tested on: Wnt activity (Sp5-Luc reporter, SW480 colon carcinoma cells); assay: Wnt activity screening assay, Sp5-Luc reporter gene in SW480 cells; settings: Homo sapiens; for inhibition at 10 µM: given where EC50 >10 μM, read-out: percent inhibition at 10 μM; for EC50: overnight incubation
Summary of the method: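 Wnt-driven firefly luciferase in SW480 colon carcinoma cells reports pathway activity after overnight compound exposure (10 μM top concentration, 3-fold steps). Signal is normalized to DMSO controls.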

SW480 colon cancer cells = assay: Cell viability assay (CellTiter-Blue); settings: Homo sapiens, 96 h, four days; for inhibition at 10 µM: given where EC50 >10 μM, read-out: percent inhibition at 10 μM
Summary of the method: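 SW480 colon cancer cells (~2×10^3/well) exposed to 8-point 1:3 dilutions from 10 μM to 0.0045 μM for four days at 37 °C/5% CO2. Viability read by resazurin (CellTiter-Blue) fluorescence after ~3 h, Ex 560/Em 590 nm. EC50 from non-linear regression; percent inhibition at 10 μM given when EC50 >10 μM.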

[2] = tested on: primary human fibroblasts derived from IPF patients (LL29 cells) treated with TGF-β1; assay: Inhibition of fibrotic process, αSMA staining in TGF-β1 treated LL29 fibroblasts; settings: Fibroblast; for EC50: 96 h, % αSMA positive LL29 cells, TGF-β1 20 ng/mL, 4 days; for inhibition at 10 µM: given where EC50 >10 μM, αSMA, LL29 cells, TGF-β1, read-out: percent inhibition at 10 μM
Summary of the method: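 LL29 IPF-patient lung fibroblasts in 1% FBS F12 were given compounds (11-point, 10 μM to […], 0.1% DMSO) plus TGF-β1 20 ng/mL for 4 days at 37 °C. αSMA-positive fraction of live (SYTOX-negative) cells was imaged and normalized to TGF-β1/DMSO wells. EC50 by non-linear regression, or % inhibition at 10 μM if >10 μM.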

| SMILES | EC50 [1] [µM] | EC50 (SW480 colon cancer cells) [µM] | inhibition at 10 µM [1] [%] | inhibition at 10 µM (SW480 colon cancer cells) [%] | EC50 [2] [µM] | inhibition at 10 µM [2] [%] |
| --- | --- | --- | --- | --- | --- | --- |
| c1ccc(-c2cc3c(-c4cc5c(-c6ccncc6)ccnc5[nH]4)n[nH]c3cn2)nc1 [Compound 140, 5-(Pyridin-2-yl)-3-(4-(pyridin-4-yl)-1H-pyrrolo[2,3-b]pyridin-2-yl)-1H-pyrazolo[3,4-c]pyridine] | > 10 | > 10 | 24.3 | 17.5 | > 10 | 10.5 |
| O=C(Nc1cncc(-c2cc3c(-c4cc5c(N6CCCCC6)ccnc5[nH]4)n[nH]c3cn2)c1)C1CC1 [Compound 188, N-(5-(3-(4-(Piperidin-1-yl)-1H-pyrrolo[2,3-b]pyridin-2-yl)-1H-pyrazolo[3,4-c]pyridin-5-yl)pyridin-3-yl)cyclopropanecarboxamide] | 1.23 | 1.28 | – | – | 1.78 | – |
| CC(C)CC(=O)Nc1cncc(-c2cc3c(-c4cc5cccnc5[nH]4)n[nH]c3cn2)c1 [Compound 254, N-(5-(3-(1H-Pyrrolo[2,3-b]pyridin-2-yl)-1H-pyrazolo[3,4-c]pyridin-5-yl)pyridin-3-yl)-3-methylbutanamide] | > 10 | > 10 | 12.4 | 20.2 | 9.98 | – |
| c1cncc(-c2cc3c(-c4cc5cccnc5[nH]4)n[nH]c3cn2)c1 [Compound 256, 5-(Pyridin-3-yl)-3-(1H-pyrrolo[2,3-b]pyridin-2-yl)-1H-pyrazolo[3,4-c]pyridine] | > 10 | > 10 | 57.7 | 19.3 | 1.7 | – |
| O=C(Cc1ccccc1)Nc1cncc(-c2cc3c(-c4cc5cccnc5[nH]4)n[nH]c3cn2)c1 [Compound 262, N-(5-(3-(1H-Pyrrolo[2,3-b]pyridin-2-yl)-1H-pyrazolo[3,4-c]pyridin-5-yl)pyridin-3-yl)-2-phenylacetamide] | > 10 | > 10 | 9.1 | 26.5 | > 10 | 45.5 |
| O=C(Nc1cncc(-c2cc3c(-c4cc5cccnc5[nH]4)n[nH]c3cn2)c1)c1ccccc1 [Compound 263, N-(5-(3-(1H-Pyrrolo[2,3-b]pyridin-2-yl)-1H-pyrazolo[3,4-c]pyridin-5-yl)pyridin-3-yl)benzamide] | > 10 | > 10 | 17 | 22.5 | > 10 | 55.3 |
| FC1(F)CCN(Cc2cncc(-c3cc4c(-c5cc6cccnc6[nH]5)n[nH]c4cn3)c2)C1 [Compound 278, 5-(5-((3,3-Difluoropyrrolidin-1-yl)methyl)pyridin-3-yl)-3-(1H-pyrrolo[2,3-b]pyridin-2-yl)-1H-pyrazolo[3,4-c]pyridine] | 1.35 | 5.01 | – | – | 0.111 | – |
| CCCC(=O)Nc1cncc(-c2cc3c(-c4cc5c(-c6cc(F)cc(NCCN(C)C)c6)ccnc5[nH]4)n[nH]c3cn2)c1 [Compound 465, N-(5-(3-(4-(3-((2-(Dimethylamino)ethyl)amino)-5-fluorophenyl)-1H-pyrrolo [2,3-b]pyridin-2-yl)-1H-pyrazolo[3,4-c]pyridin-5-yl)pyridin-3-yl)butyramide] | > 10 | > 10 | 16.1 | 10.6 | > 10 | 43 |
| CN(C)CCNc1cc(F)cc(-c2ccnc3[nH]c(-c4n[nH]c5cnc(-c6ccncc6)cc45)cc23)c1 [Compound 466, N^1-(3-Fluoro-5-(2-(5-(pyridin-4-yl)-1H-pyrazolo[3,4-c]pyridin-3-yl)-1H-pyrrolo[2,3-b]pyridin-4-yl)phenyl)-N^2,N^2-dimethylethane-1,2-diamine] | > 10 | > 10 | 16.5 | 16.8 | 1.74 | – |
| CN(C)CCNc1cc(F)cc(-c2ccnc3[nH]c(-c4n[nH]c5cnc(-c6cncnc6)cc45)cc23)c1 [Compound 475, N^1-(3-Fluoro-5-(2-(5-(pyrimidin-5-yl)-1H-pyrazolo[3,4-c]pyridin-3-yl)-1H-pyrrolo[2,3-b]pyridin-4-yl)phenyl)-N^2,N^2-dimethylethane-1,2-diamine] | > 10 | > 10 | 10.9 | 17 | > 10 | 27.5 |
| Fc1cccc(-c2ccnc3[nH]c(-c4n[nH]c5cnc(-c6cncc(OCc7ccccc7)c6)cc45)cc23)c1 [Compound 518, 5-(5-(Benzyloxy)pyridin-3-yl)-3-(4-(3-fluorophenyl)-1H-pyrrolo[2,3-b]pyridin-2-yl)-1H-pyrazolo[3,4-c]pyridine] | > 10 | > 10 | 3.3 | 41.5 | > 10 | 27.5 |

Continued, in another order:

| EC50 [1] [µM] | EC50 (SW480 colon cancer cells) [µM] | SMILES | inhibition at 10 µM [1] [%] | inhibition at 10 µM (SW480 colon cancer cells) [%] | EC50 [2] [µM] | inhibition at 10 µM [2] [%] |
| --- | --- | --- | --- | --- | --- | --- |
| > 10 | > 10 | c1cc(N2CCCCC2)c2cc(-c3n[nH]c4cnc(-c5cncc(CN6CCCC6)c5)cc34)[nH]c2n1 [Compound 182, 3-(4-(Piperidin-1-yl)-1H-pyrrolo[2,3-b]pyridin-2-yl)-5-(5-(pyrrolidin-1-ylmethyl)pyridin-3-yl)-1H-pyrazolo[3,4-c]pyridine] | 41.4 | 54.9 | 4.51 | – |
| > 10 | > 10 | CN1CCN(c2ccnc3[nH]c(-c4n[nH]c5cnc(-c6cncc(N(C)C)c6)cc45)cc23)CC1 [Compound 231, N,N-Dimethyl-5-(3-(4-(4-methylpiperazin-1-yl)-1H-pyrrolo[2,3-b]pyridin-2-yl)-1H-pyrazolo[3,4-c]pyridin-5-yl)pyridin-3-amine] | 8.2 | 9.2 | > 10 | 41.8 |
| > 10 | 4.29 | CN1CCN(c2ccnc3[nH]c(-c4n[nH]c5cnc(-c6cncc(CNCC7CCCC7)c6)cc45)cc23)CC1 [Compound 249, 1-Cyclopentyl-N-((5-(3-(4-(4-methylpiperazin-1-yl)-1H-pyrrolo[2,3-b]pyridin-2-yl)-1H-pyrazolo[3,4-c]pyridin-5-yl)pyridin-3-yl)methyl)methanamine] | 41.4 | – | 6.92 | – |
| > 10 | > 10 | O=C(Nc1cncc(-c2cc3c(-c4cc5cccnc5[nH]4)n[nH]c3cn2)c1)C1CC1 [Compound 272, N-(5-(3-(1H-Pyrrolo[2,3-b]pyridin-2-yl)-1H-pyrazolo[3,4-c]pyridin-5-yl)pyridin-3-yl)cyclopropanecarboxamide] | 19.3 | 23.3 | 9.98 | – |
| > 10 | > 10 | O=C(Nc1cncc(-c2cc3c(-c4cc5cccnc5[nH]4)n[nH]c3cn2)c1)C1CCCCC1 [Compound 275, N-(5-(3-(1H-Pyrrolo[2,3-b]pyridin-2-yl)-1H-pyrazolo[3,4-c]pyridin-5-yl)pyridin-3-yl)cyclohexanecarboxamide] | 14 | 9.5 | 2.52 | – |
| > 10 | > 10 | Nc1cncc(-c2cc3c(-c4cc5c(-c6ccoc6)ccnc5[nH]4)n[nH]c3cn2)c1 [Compound 311, 5-(3-(4-(Furan-3-yl)-1H-pyrrolo[2,3-b]pyridin-2-yl)-1H-pyrazolo[3,4-c]pyridin-5-yl)pyridin-3-amine] | 23.2 | 5.5 | 1.03 | – |
